Tests used:
Assay type in all cases: cell-based, human
[1] = system: PC-3 cells; assay: Cell cycle analysis by flow cytometry (Propidium Iodide), PC-3; details: PC-3, 24 h, 25 μM and 50 μM tested (concentration of this value not stated)
Description: For that, we treated PC-3 and LNCaP cells with 25 μM and 50 μM of compound 8c for 24 h and performed cell cycle analysis by flow cytometry using Propidium Iodide (PI). […] It is worthy to note that when PC-3 cells were treated with compound 8c, 80% of cells were in subG0 phase (Fig. 4A).
(§1) Figure 4 Cell Cycle analysis in 8c-treated prostate cancer cells. (A) PC-3 and LNCaP cells were treated with compound 8c for 24 hours and cell cycle analysis was analyzed by flow cytometry using Propidium Iodide (PI). Percentage of cells in subG0, G1, S, and G2/M phases is indicated in the histogram. (B) Levels of Cyclin D1, p-p53, p53, p21 and cleaved Caspase 3 (17 kDa fragment) were determined by Western blot. Upper panel, representative Western blot of two different experiments. β-tubulin (β-Tub) serves as a loading control. Lower panel, the densitometric analyses of bands represented as the mean ± SD of the two different experiments. *p < 0.05 and **p < 0.01 compared with the control group by the Student’s t-test.
Flow cytometry was used to detect the distribution of cell cycle. After being cultivated with the treatment, 10^5 cells in 35 mm culture dish were harvested in 0.35% trypsin, collected and fixed with 70% cold ethanol at 4 °C for 1 h. Then, cells were centrifuged at 1500 g for 5 min and incubated in 0.5 ml PBS containing 0.1 mg/ml RNase for 30 min at 37 °C. […]

[2] = system: p21; assay: p21 level by Western blot in PC-3 and LNCaP cells
Description: as §1, with “Lower panel, the densitometric analyses of bands represented as the mean ± SD of the two different experiments. *p < 0.05 and **p < 0.01 compared with the control group by the Student’s t-test.” left out
Cyclin D1 activity is modulated by several inhibitors such as p21 which negatively regulate cell cycle progression by interacting with cyclin dependent kinases (cdks). […] To further study the role of compound 8c in cell cycle, we determined the expression of p21, p53 and the levels of cleaved caspase 3 in the prostate cells. P53 was only determined in LNCaP cells since PC-3 cells are p53-negative[40].
Cells were lysed in Lysis buffer (50 mM Tris pH 7.4, 0.8 M NaCl, 5 mM MgCl2, 0.1% Triton X-100) containing Protease Inhibitor and Phosphatase inhibitor Cocktails (Roche, Basel, Switzerland). Protein concentrations were measured by BioRad™ protein assay kit (Richmond, CA, USA). […] Films were analyzed by densitometry. […]

[3] = system: Androgen Receptor (AR); assay: Androgen Receptor expression by Western blot in LNCaP cells; details: 25 µM, 24 hours
Description: Figure 5 AMPK activation by compound 8c in prostate cancer cells. (A) PC-3 and LNCaP cells were treated with vehicle, 25 µM compound 8c, 25 µM compound 8c + 5 μM Dorsomorphin (8c + D) or 5 μM Dorsomorphin (D), for 1 hour or 24 hours and levels of the phosphorylated AMPK (pAMPK), phosphorylated ACC (pACC), phosphorylated Raptor (pRaptor) forms and HIF1α were determined by Western blot. Upper panel, representative Western blot of three different experiments. β-tubulin (β-Tub) serves as a loading control. Lower panel, densitometric analyses of bands represented as the mean of the ratio pAMPK/AMPK or pACC/ACC. (B) Cell viability monitored by MTT assay in PC-3 and LNCaP cells treated with vehicle, 25 µM and 50 μM compound 8c alone or in the presence of 5 μM Dorsomorphin or transfected with control siRNA (siC) or α1AMPK-selective siRNA (siAMPK). (C) LNCaP cells were treated with vehicle, 25 µM compound 8c, 25 µM compound 8c + 5 μM Dorsomorphin (8c + D) or 5 μM Dorsomorphin (D), for 24 hours and levels of Androgen Receptor (AR), Prostate specific antigen (PSA) and Prostate specific membrane antigen (PSMA) were determined by Western blot.Values were normalized with the control and represent the mean ± SD of at least three independent experiments. *p < 0.05 and **p < 0.01 compared to control and ^#p < 0.05 and ^##p < 0.01 compared with 8c-treated group by the Student’s t-test. […]

SMILES: O=C1Nc2ccccc2C1(F)Cc1ccc(-c2ccccc2)o1 (stereo not drawn) [Compound 8c, 3-fluoro-3-((5-phenylfuran-2-yl)methyl)indolin-2-one]
- cells in subG0 phase [1]: 80%
- p21 protein level [2]: remarkably increase in p21 protein
- expression of AR [3]: markedly reduced the expression of AR
